In patent EP4624469A1 (Jiangsu Hengrui Pharmaceuticals Co., Ltd., priority 2022, dated 2024):
Where two headings read alike, the source gives them in different places.

Experiments:
[1] = Long-term accelerated stability tests; assay type: physicochemical; details: for Purity (%): Initial; for Crystal form: up to 6 months
Text: Table 12. The long-term accelerated stability of the crystal form

[2] = DVS (dynamic vapor sorption) hygroscopicity testing; assay type: physicochemical
Method: DVS refers to dynamic vapor sorption: Surface Measurement Systems instrinsic was adopted; the humidity started at 50%, the humidity range of the investigation was 0%-95%, and the humidity was increased in increments of 10%; the criterion was that each gradient mass change dM/dT is ≤ 0.002%, TMAX 360 min, two cycles.

[3] = Influencing factors stability test (light exposure, high temperature, high humidity); assay type: physicochemical; details: for remaining at 120 h / remaining at 240 h / remaining at 720 h: solid storage, read-out: Purity%
Text: Table 11. The influencing factor stability of the crystal form

miR-124 = test: Up-regulation of miR-124 in CD3/CD28 antibody-activated T cells (SYBR green fluorescence quantitative PCR); assay type: cell-based; details: T-cell, 72 h; activated human T cells, final compound concentration 1 µM, 3 days; relative to DMSO, U6 internal reference; read-out: up-regulated miR-124 (relative expression level)
Method: The effect of the compound on miR-124 expression levels was assessed in CD3/CD28 antibody-activated T cells. After the activated T cells were treated with the compound, the total cellular RNA was extracted, the cDNA obtained from reverse transcription was used as a template, and quantification was performed by using an SYBR green fluorescence quantitative PCR method and a specific miR-124 primer.
Isolation of T cells: The purchased human peripheral blood mononuclear cells (PBMCs) were counted, filtered, and then washed once with a separation buffer (PBS, pH 7.4, containing 0.5% BSA and 2 mM EDTA), and the supernatant was discarded. Various components were added in such a manner that for every 1 × 10^7 cells, 40 µL of buffer and 10 µL of pan T Cell Biotin-Antibody Cocktail were added. The pellets were resuspended and well mixed, and the suspension was incubated in a refrigerator at 4 °C for 5 min. After the incubation was completed, various components were added in such a manner that for every 1 × 10^7 cells, 30 µL of buffer and 20 µL of Pan T Cell MicroBeads Cocktail were added. After thorough mixing, the mixture was incubated in a refrigerator at 4 °C for 10 min. […] The cells were counted and added at a density of 1 × 10^6 cells/mL to an RPMI1640 culture medium (complete culture medium) containing 10% FBS and 40 U/mL IL-2, and the mixture was stored on ice for later use. […]

[4] = Light exposure (4500 Lux), 5 days
[5] = Light exposure (4500 Lux), 10 days
[6] = Light exposure (4500 Lux), 30 days

## FC1(F)Oc2ccc(Nc3ccc4cccc(Cl)c4n3)cc2O1 [crystal form A, 8-chloro-N-(2,2-difluorobenzo[d][1,3]dioxol-5-yl)quinolin-2-amine]
[1]; 25 °C, 60% RH
  Purity (%): 100.0%
  Crystal form: Did not change
[1]; 25 °C/60% RH and 40 °C/75% RH, 6 months
  physical and chemical stability (conclusion): both good physical stability and good chemical stability
[1]; 40 °C, 75% RH
  Purity (%): 100.0%
  Crystal form: Did not change
[1]; solid storage, 25 °C, 60% RH, 1M, read-out: Purity (%)
  remaining at 720 h: 100%
[1]; solid storage, 25 °C, 60% RH, 2M, read-out: Purity (%)
  remaining at 1440 h: 100%
[1]; solid storage, 25 °C, 60% RH, 3M, read-out: Purity (%)
  remaining at 2160 h: 100%
[1]; solid storage, 25 °C, 60% RH, 6M, read-out: Purity (%)
  remaining at 4320 h: 100%
[2]; accelerated experimental conditions (70% RH)
  hygroscopic weight gain: about 0.02%
[2]; after DVS testing
  crystal form re-identified after DVS testing: the crystal form did not change
[2]; extreme conditions (90% RH)
  hygroscopic weight gain: about 0.18%
[2]; normal storage conditions (room temperature and 60% RH)
  hygroscopic weight gain: about 0.02%
[3]; 40°C, 5 days
  Color and state: Off-white solid
  Crystal form: Did not change
  remaining at 120 h: 100%
[3]; 40°C, 10 days
  Color and state: Off-white solid
  Crystal form: Did not change
  remaining at 240 h: 100%
[3]; 40°C, 30 days
  Color and state: Off-white solid
  Crystal form: Did not change
  remaining at 720 h: 100%
[3]; 60°C, 5 days
  Color and state: Off-white solid
  Crystal form: Did not change
  remaining at 120 h: 100%
[3]; 60°C, 10 days
  Color and state: Off-white solid
  Crystal form: Did not change
  remaining at 240 h: 100%
[3]; 60°C, 30 days
  Color and state: Off-white solid
  Crystal form: Did not change
  remaining at 720 h: 100%
[3]; 75% RH, 5 days
  Color and state: Off-white solid
  Crystal form: Did not change
  remaining at 120 h: 100%
[3]; 75% RH, 10 days
  Color and state: Off-white solid
  Crystal form: Did not change
  remaining at 240 h: 100%
[3]; 75% RH, 30 days
  Color and state: Off-white solid
  Crystal form: Did not change
  remaining at 720 h: 100%
[3]; 92.5% RH, 5 days
  Color and state: Off-white solid
  Crystal form: Did not change
  remaining at 120 h: 100%
[3]; 92.5% RH, 10 days
  Color and state: Off-white solid
  Crystal form: Did not change
  remaining at 240 h: 100%
[3]; 92.5% RH, 30 days
  Color and state: Off-white solid
  Crystal form: Did not change
  remaining at 720 h: 100%
[3]; Initial, 0 days
  Color and state: Off-white solid
  Crystal form: Crystal form A
  Purity (%): 100.0%
[3]; [4]
  Color and state: Off-white solid
  Crystal form: Did not change
  remaining at 120 h: 100%
[3]; [5]
  Color and state: Off-white solid
  Crystal form: Did not change
  remaining at 240 h: 100%
[3]; [6]
  Color and state: Off-white solid
  Crystal form: Did not change
  remaining at 720 h: 99.9%
[3]; light exposure, 40 °C and 60 °C, 75% and 92.5% humidity, 30 days
  physical and chemical stability (conclusion): both good physical stability and good chemical stability

## FC1(F)Oc2ccc(Nc3ccc4cccc(Cl)c4n3)cc2O1 [Compound 1, 8-Chloro-N-(2,2-difluorobenzo[d][1,3]dioxol-5-yl)quinolin-2-amine]
miR-124
  fold induction at 1 µM: 3.9
